Results: patent publication US12404532B2, “Composition for producing glucosylated steviol glycoside including glucosyltransferase and method of producing glucosylated steviol glycoside using the same” (CJ CHEILJEDANG CORPORATION, priority 2019, dated 2025)
“Also recorded” adds a separate entry of the source.

Legend:
[1] = assay type: physicochemical
Procedure: The solubility of steviol glycoside and glucosylated steviol glycoside was measured.
Specifically, the solubility of Rebaudioside A (RA), Stevioside (STV), glucosylated Rebaudioside A (RA-Glu) of Example 4, and glucosylated Stevioside (STV-Glu) of Example 4 was measured, respectively.
Each 6 g of Rebaudioside A, Stevioside, glucosylated Rebaudioside A, and glucosylated Stevioside was mixed with 10 mL, and then dissolved by sonication at 50° C. for 60 minutes. The resultant was incubated for 1 week in a water bath at 5° C., 15° C., 25° C., 35° C., 45° C., or 55° C. Thereafter, the resulting solution was centrifuged at 12,000 rpm for 10 minutes, and 1 mL of the supernatant was collected and dried in an oven at 105° C. to measure the solubility, which is shown in Table 4.

[2] = Panel evaluation of actual sweetness and quality of sweetness; details: for Actual Sweetness / Evaluation of Quality of Sweetness: dissolved in water, provided to panels
Description: The known material (i.e., α-(1,4) glucosylated Rebaudioside A) and the α-(1,6) glucosylated Rebaudioside A of Example 4 were independently dissolved in water and provided to panels for evaluation of actual sweetness and quality of sweetness.

[3] = test system: enzyme including the amino acid sequence of SEQ ID NO: 1; test: Glucose transfer to steviol glycoside by purified recombinant enzyme (HPLC); assay type: biochemical, Lactobacillus mali; details: 6% substrate, 6% white sugar, 50 mM sodium acetate buffer pH 5.0, 40 °C, 24 hours, purified enzyme of Example 5-1
Procedure: A polynucleotide encoding the amino acid sequence of SEQ ID NO: 1 was prepared by a polynucleotide synthesis method (Bioneer Corp.), and the obtained polynucleotide was inserted into a pBT7-N-His vector, which was then transformed into E. coli BL21(DE3). The transformed E. coli was smeared on a plate medium containing ampicillin to obtain a recombinant strain (microorganism).
The recombinant E. coli strain was seeded in 5 mL of an LB medium containing ampicillin, and seed culture was carried out at 37° C. until optical density at 600 nm reached 2.0. The seed culture broth was added to 500 mL of an LB medium containing ampicillin, and main culture was carried out. Thereafter, when optical density at 600 nm reached 0.4, 0.1 mM isopropyl β-D-thiogalactopyranoside (IPTG) was added to induce mass-expression of the enzyme including the amino acid sequence of SEQ ID NO: 1. During the process, an agitation speed was 180 rpm, and culture temperature was maintained at 37° C. After IPTG addition, the agitation speed was 120 rpm, and culture temperature was maintained at 16° C.
The culture broth was centrifuged at 10,000×g at 4° C. for 20 minutes to obtain a cell pellet. A 50 mM tris-HCl buffer solution was added to the pellet, and re-suspended as a cell solution. The cell solution was sonicated using a sonicator. […]

[4] = test system: Lactobacillus mali crude enzyme solution including the enzyme including the amino acid sequence of SEQ ID NO: 1; test: Glucose transfer to steviol glycoside by crude enzyme solution (HPLC); assay type: biochemical; details: 6% substrate, 6% white sugar, 50 mM sodium acetate buffer pH 5.0, 40 °C, 24 hours
Procedure: 6% Rebaudioside A (purecircle) or 6% Stevioside (carbosynth), and 6% white sugar (CJ CheilJedang) were dissolved in a 50 mM sodium acetate buffer (pH 5.0), and then the Lactobacillus mali crude enzyme solution including the enzyme including the amino acid sequence of SEQ ID NO: 1 was added thereto, and allowed to react at 40° C. for 24 hours. Thereafter, whether glucosylated Rebaudioside A or glucosylated Stevioside was produced was confirmed by HPLC, and the results are shown in FIGS. 2 to 5. Meanwhile, HPLC analysis conditions are as follows:
FIGS. 2 and 4 show HPLC analysis results before the enzyme reaction, and FIGS. 3 and 5 show HPLC analysis results after the enzyme reaction.

[5] = Sugar hydrolysis activity by reducing sugar determination method (DNS method); assay type: biochemical; details: 200 mM sugar solution, 40 °C, 10 minutes
Procedure: To confirm the presence of the desired enzyme, sugar hydrolysis activity of each fraction was examined by a reducing sugar determination method (DNS method).
A 200 mM sugar solution and each fraction were mixed at a ratio of 1:1 in a 50 mM sodium acetate buffer, and allowed to react in a water bath at 40° C. for 10 minutes, followed by inactivation at 100° C. A DNS reagent was added thereto at a ratio of 1:3, and then mixed and allowed to react at 100° C. for 5 minutes, and then DNS reaction was immediately stopped on ice. Thereafter, optical density (OD) of the DNS reagent was measured at 575 nm, and the activity was confirmed from a constructed fructose standard curve. At this time, 1 unit is defined by the amount (mL) of an enzyme that produces 1 μmole of fructose per 1 minute.

Row | Solubility (%) [1] | Solubility as compared with Stevioside and Rebaudioside A, respectively [1] | Molecule | Actual Sweetness [2] | Conversion rate into glucosylated steviol glycoside [4] | also measured
1 | ≥ 40 ↑ % | remarkably increased solubility | C=C1C[C@@]23CC[C@H]4[C@@](C)(CCC[C@@]4(C)C(=O)O[C@@H]4O[C@H](CO[C@H]5O[C@H](CO)[C@@H](O)[C@H](O)[C@H]5O)[C@@H](O)[C@H](O)[C@H]4O)[C@@H]2CC[C@]1(O[C@@H]1O[C@H](CO)[C@@H](O)[C@H](O[C@@H]2O[C@H](CO)[C@@H](O)[C@H](O)[C@H]2O)[C@H]1O[C@@H]1O[C@H](CO)[C@@H](O)[C@H](O)[C@H]1O)C3 [RA-Glu, glucosylated Rebaudioside A] | 26 | – | Evaluation of Quality of Sweetness ([2]; listed as α-(1,6) glucosylated Rebaudioside A): better quality of sweetness; also recorded: Gives sweet taste in the beginning, has; Sweetness as compared with the α-(1,4) glucosylated Rebaudioside A ([2]; summary of Table 5): high sweetness
2 | ≥ 40 ↑ % | remarkably increased solubility | C=C1C[C@@]23CC[C@H]4[C@@](C)(CCC[C@@]4(C)C(=O)O[C@@H]4O[C@H](CO[C@H]5O[C@H](CO)[C@@H](O)[C@H](O)[C@H]5O)[C@@H](O)[C@H](O)[C@H]4O)[C@@H]2CC[C@]1(O[C@@H]1O[C@H](CO)[C@@H](O)[C@H](O)[C@H]1O[C@@H]1O[C@H](CO)[C@@H](O)[C@H](O)[C@H]1O)C3 [STV-Glu, glucosylated Stevioside] | – | – | –
3 | – | – | α-(1,4) glucosylated Rebaudioside A [reference compound] | 19 | – | Evaluation of Quality of Sweetness [2]: Bitter taste is stronger than sweet taste,
4 | – | – | C=C1C[C@@]23CC[C@H]4[C@@](C)(CCC[C@@]4(C)C(=O)O[C@@H]4O[C@H](CO)[C@@H](O)[C@H](O)[C@H]4O)[C@@H]2CC[C@]1(O[C@@H]1O[C@H](CO)[C@@H](O)[C@H](O[C@@H]2O[C@H](CO)[C@@H](O)[C@H](O)[C@H]2O)[C@H]1O[C@@H]1O[C@H](CO)[C@@H](O)[C@H](O)[C@H]1O)C3 [RA, Rebaudioside A, reference compound] | – | about 90% | Conversion rate into glucosylated Rebaudioside A [3]: about 90%
5 | – | – | C=C1C[C@@]23CC[C@H]4[C@@](C)(CCC[C@@]4(C)C(=O)O[C@@H]4O[C@H](CO)[C@@H](O)[C@H](O)[C@H]4O)[C@@H]2CC[C@]1(O[C@@H]1O[C@H](CO)[C@@H](O)[C@H](O)[C@H]1O[C@@H]1O[C@H](CO)[C@@H](O)[C@H](O)[C@H]1O)C3 [STV, Stevioside, reference compound] | – | about 90% | –
6 | – | – | 75 kDa protein of Fraction No. 2: 75 kDa protein purified from Lactobacillus mali culture, identified by LC-MS as amino acid sequence SEQ ID NO: 1; glucosyltransferase (protein, listed as Lactobacillus mali) MDQMVLETQQWLNKTYGGVSGFGSVTEDGLTGWGTVYGLTRALQHELGITGLVNNFGPTSKQKFNNIAKTIVVGYTGNIAYIIQGGFWCKGITPGEFDGKFSADTASAVTTMKTKAGLADTSSSVDGNFMAALLNMSSFDLLTGGDSKVREMQQQLNHDYLAYTGILPCDGIYQRDTNSALIYALQAEEKISTSVATGAYGATTKKDTPTVKEGTTNNFVRILQWGLYVNNKAYTGAFDGVYDSAVVAAVKEFEETMALDSTDGTSAGVDIFMSLLTSAGNPDRSAIACDTSYQLNATRVATLKNAGYSIVGRYLTGTVGSGTSERAKNLTTDEITAITTGGLKIFPIYQDGASDKEAYFTAAQGKTDGTKAVYAAQDLGFKEGVVIYFAVDADIQAGDIAGSAKVYFEALYDIVTSYGYEVGIYGTRNVSATIISAGLATKAFISDMSTGYSGNLGYSIPDEWAFDQFSEISIGDFAIDKDATTSARETATGSFGVGGESGYGNAEDLAKINTIIDALSQKKNFSYLSGLKIEKTSKEYEIPGFAVDFYVQVKFEASVSEPGDNVGVVYNVSNGKFESDFTDTIAGVVALSDEINKEDINSALTELSSLINNGQIWVEPVTKGSDAGIALHIKSTFDHTLDSGETIELEYEIIIDEIFHKIEVVPTGVPNTTANDYNSLFPNGIKEFVGFSIVAGLATGGIYYVVTAVGATAAVVTTSILALIALLKNNDTGV | – | – | Sugar hydrolysis activity [5]: had sugar hydrolysis activity
